Source: US11806407B2, “Refillable drug delivery by affinity homing” (UNIVERSITY OF NOTRE DAME DU LAC, priority 2018, dated 2023)
Where two headings read alike, the source gives them in different places.

Columns and labels:
[1] = known competitor or probe guests, cited from earlier work
[2] = Competition 1H-NMR to determine Keq of guests for CB[7]; assay type: binding
Procedure: Determination of Keq by ^1H-NMR competition experiments. ^1H-NMR competition experiments were performed on a 500 MHz Bruker NMR spectrometer, according to the method described by Isaacs and colleagues. Briefly, NMR samples were prepared at three different ratios of a) a model compound for the PEG-appended guest, b) a competitive guest with a previously reported binding constant, and c) free unmodified CB[7]. Samples were prepared in D2O and allowed to reach equilibrium for times ranging from ˜30 minutes for the weakest guest to 4 days for the strongest guests. Equilibrium was verified by tracking the measured ^1H-NMR resonances until the spectra became constant. ^1H-NMR spectra were then acquired for each sample. […] The concentrations of the bound and free guest were obtained by this method, also yielding the concentration for the bound and the free form of the competing guest as well. In these equilibrium mixture, the Krel values were calculated using the relationships below. Krel values for 3 independent experiments with varying and known ratios of each of three components were averaged to obtain the final estimated Keq values.
[formula] Krel can alternatively be expressed as follows:
[formula] Rearranging yields the following expression for Keq: Krel,test=Krel,test/known×Keq,known

[3] = on the basis of fluorescence
[4] = NMR of bupivacaine bound to CB[7]; assay type: binding; conditions: preliminary, based on prior experience
[5] = Solubility of bupivacaine alone and with CB[7]; assay type: physicochemical
[6] = Weight, survival and morbidity in the tumor studies; conditions: 3 mg/kg/day doxorubicin equivalent, three consecutive days
Procedure: In Vivo Tumor Model. Luciferase-expressing MDA-MB-231 cells (Gen Target Inc) were received and passaged 3 times under sterile conditions in standard growth media (DMEM with 10% FBS). Tumors were induced by the injection of 106 cells suspended in 50% growth factor-reduced Matrigel (BD Biosciences) to a total volume of 200 μL (100 μL PBS and 100 μL Matrigel) subcutaneously onto the shaved right flank of NSG mice under sterile conditions. After 14 days, mice without palpable tumors were culled from the study. […] This day was considered as ‘day 0’ throughout the study. One day after gel injection (day 1), tumors started being tracked using in vivo bioluminescence imaging using an IVIS Lumina Imager. Mice were intraperitoneally injected with 0.1 ml of 30 mg/ml D-Luciferin in 1×DPBS 10 min before imaging, determined from control experiments to be sufficient to capture luminescent signal at its plateau. Mice were randomized into groups. Treated animals received Fc-Hdz-Dox or Me-Hdz-Dox (6 mg/kg Dox-equivalent dose) by i.p. injection in 0.1 ml saline 1, 2, and 3 days after hydrogel application. PBS was injected in the same way into control animals. Throughout the study, in vivo bioluminescence imaging and body weight was collected for treated mice every three days. At day 28, mice were euthanized and tumors were excised and weighed.

[7] = system: MDA-MB-231 cells; test: MTT in vitro cytotoxicity assay; assay type: cell-based; conditions: Homo sapiens, 72 hrs
[8] = system: MDA-MB-231 (luc+) tumor; test: In vivo tumor model with hydrogel adjacent to the tumor; parameters: species or system mice; conditions: 3 mg/kg/day doxorubicin equivalent, three consecutive days
[9] = mice, i.p., RTECS database; cited from earlier work
[10] = cited from earlier work
[11] = rats; cited from earlier work

## NCCCCCCN [1,6-diaminohexane]
[1]
  Keq for binding to CB[7], literature-reported: 8.9e+07 M⁻¹

## OC12CC3CC(CC(C3)C1)C2 [1-adamantanol]
[1]
  Keq for binding to CB[7], literature-reported: 2.3e+10 M⁻¹
[1]; listed as SM2
  Keq for binding to CB[7], literature-reported: ~1e+10 M⁻¹

## CN(C)c1ccc2cc3ccc(N(C)C)cc3nc2c1 [Acridine Orange]
[1]
  Keq for binding to CB[7], literature-reported: 200000 M⁻¹

## CN1/C(=C/C=C/C=C/C2=[N+](CCCCCC(=O)NCCC(=O)NC34CC5CC(CC(C5)C3)C4)c3ccc(S(=O)(=O)[O-])cc3C2(C)C)C(C)(C)c2cc(S(=O)(=O)O)ccc21 [Ad-Am-Cy5]
[2]; competition 1H-NMR in D2O, association constant
  Keq for binding to CB[7]: 2.1e+10 M⁻¹
[3]
  fold less accumulation at the hydrogel than the strong conjugate: 3 fold

## CC(=O)NCCC(=O)NC12CC3CC(CC(C3)C1)C2 [Ada-Am-Ac]
[2]; model guest relative to competitive guest, average of three competition experiments
  Krel: 0.89

## CCCCN1CCCCC1C(=O)Nc1c(C)cccc1C (stereo not shown) [bupivacaine]
[4]
  binding to CB[7]: ~10^8 M^−1
[5]; combined with CB[7]
  water solubility: very good water solubility
[5]; on its own
  solubility: sparingly soluble

## COc1cccc2c1C(=O)c1c(O)c3c(c(O)c1C2=O)C[C@@](O)(C(=O)CO)C[C@@H]3O[C@H]1C[C@H](N)[C@H](O)[C@H](C)O1 [doxorubicin]
[6]
  tolerability (weight, survival): weight loss and poor survival outcomes
[7]
  IC50: 490 nM
[8]
  tumor growth: tumors continued to grow in spite of treatment
[9]
  LD50: 11.2 mg/kg

## NCc1ccc(CN)cc1 [p-xylylenediamine]
[1]
  Keq for binding to CB[7], literature-reported: 1.78e+09 M⁻¹
[1]; listed as SM^−1
  Keq for binding to CB[7], literature-reported: ~1e+09 M⁻¹
[1]; listed as pxylylenediamine
  Keq for binding to CB[7], literature-reported: 1.84e+09 M⁻¹

## cucurbit[7]uril [CB[7]]
[10]
  degradation in vivo: not appreciably degraded in vivo
[11]
  LD50: > 250 mg/kg
